According to publication PMC9822287, “The Fate and Intermediary Metabolism of Soyasapogenol in the Rat” (Molecules, 2022):
Like-named read-outs stand apart in the source and are kept apart here.

Key:
[1] = Pharmacokinetics of oral administration in rats (plasma); format: in vivo; settings: rat; for concentration at 1 h / bioavailability / AUC(0-inf) / AUC(0-t) / CL/F / half-life / Cmax / Tmax: plasma; for concentration at 1 h: 1.0 h postadministration; for bioavailability: oral AUC(0-∞)/intravenous AUC(0-∞), read-out: Bioavailability (F); for AUC(0-t): mean n = 6; for CL/F: read-out: CLz/F (clearance) (converted); for half-life: read-out: T1/2z (biological half-life) (converted); for Cmax / Tmax: po; for Ratio of B/A in plasma level (AUC): ratio of soyasapogenol B to soyasapogenol A in plasma
Protocol: The experiments were performed according to Kamo et al. The rats were divided into three groups (n = 8). All rats were fasted for 14–15 h prior to soyasapogenol A or B administration. All rats were orally administered soyasapogenol A or B via direct stomach intubation.
Blood samples were collected from the tail vein at 0 (pre-dose), 0.25, 0.5, 1, 2, 4, 6, 8, and 24 h after administration. The sample volume was 200 μL. The samples were immediately transferred to a centrifuge tube and treated with a sodium citrate anticoagulant. This fraction was then centrifuged at 10,000 rpm for 10 min, and the upper plasma was collected and placed in a refrigerator at −80 °C for later use.
(§1) The soyasapogenol concentrations in the rat plasma solutions were determined according to the method published in [5]. At first, the plasma samples were thawed to 4 °C and transferred (20 to 100 μL) to an Eppendorf tube. After adding the same volume of 0.2 mol/L sodium acetate buffer to each sample, 3 µL aliquots of glucuronidase (Sigma; extracted from Helix pomatia, containing 95,600 units/mL glucuronidase and 1100 units/mL sulfatase) were added to analyze the glucuronyl- and sulfatide-conjugated forms of the soyasapogenols, and the mixture was incubated at 37 °C for 12 h. The samples were mixed thoroughly, and then they were centrifuged at 10,000 rpm for 15 min. The supernatant was blown with nitrogen gas until it was dry, and residual supernatant was dissolved with 1 mL methanol. Subsequently, after filtration, the samples were analyzed according to the method published in [5].
The bioavailability parameters were calculated by comparing AUCoral postadministration with AUCiv post-soyasapogenol I.V. injection:%Bioavailability = [(AUCoral) × Doseiv/(AUCiv) × Doseoral] × 100
The calculation formula is as follows: F = oral administration AUC(0-∞)/intravenous injection AUC(0-∞).

[2] = Pharmacokinetics of intravenous injection in rats (plasma); format: in vivo; settings: rat, intravenous (I.V.); for AUC(0-inf) / Cmax / Tmax / AUC(0-t) / half-life: plasma; for AUC(0-t): mean n = 6; for half-life: iv, read-out: T1/2z (half-life) (converted)
Protocol: The rats’ dorsal foot veins were cannulated with a standard syringe needle to administer the soyasapogenol. As presented in Table 5, the dosages of soyasapogenol A were 10 mg/kg and 20 mg/kg, and the dosages of soyasapogenol B were 25 mg/kg and 50 mg/kg. Blood samples were collected from the tail vein just prior to soyasapogenol administration (0 h) and 0.03, 0.08, 0.25, 0.5, 1, 2, 4, 6, 8, and 24 h after soyasapogenol loading; blood soyasapogenol levels were measured immediately. The collected blood sample volume was approximately 200 μL, and the samples were subjected to the same sample pretreatment procedure as described below.
as §1

Caco-2 cell monolayer = system: Caco-2 cell monolayer; parameters: method as in PMID 24698352; settings: cited from earlier work

CC1(C)C[C@H]2C3=CC[C@@H]4[C@@]5(C)CC[C@H](O)[C@](C)(CO)[C@@H]5CC[C@@]4(C)[C@]3(C)CC[C@@]2(C)[C@H](O)[C@@H]1O [Soyasapogenol A]
concentration at 1 h ([1]; oral, 10 mg/kg by gavage): 29000 ± 10000 ng/mL | concentration at 1 h ([1]; oral, 20 mg/kg by gavage): 7000 ± 6000 ng/mL | bioavailability ([1]; 10 mg/kg): 73.1% | bioavailability ([1]; 20 mg/kg): 67.3% | AUC(0-inf) ([1]; oral (P.O.), 10 mg/kg): 50.7 µg·h/mL | AUC(0-t) ([1]; oral (P.O.), 10 mg/kg): 35.2 µg·h/mL | CL/F ([1]; oral (P.O.), 10 mg/kg): 6.57 mL/min/kg | half-life ([1]; oral (P.O.), 10 mg/kg): 2.55 h | AUC(0-inf) ([1]; oral (P.O.), 20 mg/kg): 95.5 µg·h/mL | AUC(0-t) ([1]; oral (P.O.), 20 mg/kg): 88.6 µg·h/mL | CL/F ([1]; oral (P.O.), 20 mg/kg): 3.48 mL/min/kg | half-life ([1]; oral (P.O.), 20 mg/kg): 1.97 h | Cmax ([1]; 10 mg/kg, oral (P.O.), 10 mg/kg, read-out: Cmax (peak concentration)): 8590 ng/mL | Tmax ([1]; 10 mg/kg, oral (P.O.), 10 mg/kg, read-out: Tmax (peak time)): 2 h | Cmax ([1]; 10 mg/kg, oral, at 1.0 h postadministration, printed as the 10 mg/kg dose (second mention), read-out: Cmax): 29000 ng/mL | Tmax ([1]; 10 mg/kg, oral, printed as the 10 mg/kg dose (second mention), read-out: time of maximum plasma concentration): 1 h | Cmax ([1]; 20 mg/kg, oral (P.O.), 20 mg/kg, read-out: Cmax (peak concentration)): 29000 ng/mL | Tmax ([1]; 20 mg/kg, oral (P.O.), 20 mg/kg, read-out: Tmax (peak time)): 1 h | AUC(0-inf) ([2]; 10 mg/kg): 69.4 µg·h/mL | Cmax ([2]; 10 mg/kg): 31700 ng/mL | Tmax ([2]; 10 mg/kg): 1.8 min | AUC(0-t) ([2]; 10 mg/kg): 56 µg·h/mL | AUC(0-inf) ([2]; 20 mg/kg): 142 µg·h/mL | Cmax ([2]; 20 mg/kg): 102000 ng/mL | Tmax ([2]; 20 mg/kg): 1.8 min | AUC(0-t) ([2]; 20 mg/kg): 114 µg·h/mL | CLz/F ([2]; 10 mg/kg): 4.8 mL/min/kg | T1/2z (half-life) ([2]; 10 mg/kg): 3.535 h | CLz/F ([2]; 20 mg/kg): 2.35 mL/min/kg | T1/2z (half-life) ([2]; 20 mg/kg): 3.475 h | half-life ([2]; 10 mg/kg, 10 mg/kg): 3.54 h | half-life ([2]; 20 mg/kg, 20 mg/kg): 3.48 h

CC1(C)C[C@@H](O)[C@]2(C)CC[C@]3(C)C(=CC[C@@H]4[C@@]5(C)CC[C@H](O)[C@](C)(CO)[C@@H]5CC[C@]43C)[C@@H]2C1 [Soyasapogenol B]
bioavailability ([1]; 25 mg/kg): 60.9% | bioavailability ([1]; 50 mg/kg): 69% | AUC(0-inf) ([1]; oral (P.O.), 25 mg/kg): 111 µg·h/mL | AUC(0-t) ([1]; oral (P.O.), 25 mg/kg): 96 µg·h/mL | CL/F ([1]; oral (P.O.), 25 mg/kg): 3.02 mL/min/kg | half-life ([1]; oral (P.O.), 25 mg/kg): 2.29 h | AUC(0-inf) ([1]; oral (P.O.), 50 mg/kg): 178 µg·h/mL | AUC(0-t) ([1]; oral (P.O.), 50 mg/kg): 157 µg·h/mL | CL/F ([1]; oral (P.O.), 50 mg/kg): 1.87 mL/min/kg | half-life ([1]; oral (P.O.), 50 mg/kg): 2.27 h | time needed to reach peak concentration ([1]; oral administration, dose not stated): 8 h | Ratio of B/A in plasma level (AUC) ([1]; oral, soyasapogenol B 25 mg/kg column): 2.17 | Ratio of B/A in plasma level (AUC) ([1]; oral, soyasapogenol B 50 mg/kg column): 1.87 | Cmax ([1]; 25 mg/kg, oral (P.O.), 25 mg/kg, read-out: Cmax (peak concentration)): 26400 ng/mL | Tmax ([1]; 25 mg/kg, oral (P.O.), 25 mg/kg, read-out: Tmax (peak time)): 2 h | Cmax ([1]; 50 mg/kg, oral (P.O.), 50 mg/kg, read-out: Cmax (peak concentration)): 40300 ng/mL | Tmax ([1]; 50 mg/kg, oral (P.O.), 50 mg/kg, read-out: Tmax (peak time)): 2 h | Tmax ([1]; oral administration, dose not distinguished, read-out: Tmax): 2 h | AUC(0-inf) ([2]; 25 mg/kg): 181 µg·h/mL | Cmax ([2]; 25 mg/kg): 43300 ng/mL | Tmax ([2]; 25 mg/kg): 1.8 min | AUC(0-t) ([2]; 25 mg/kg): 76.2 µg·h/mL | AUC(0-inf) ([2]; 50 mg/kg): 258 µg·h/mL | Cmax ([2]; 50 mg/kg): 66800 ng/mL | Tmax ([2]; 50 mg/kg): 1.8 min | AUC(0-t) ([2]; 50 mg/kg): 154 µg·h/mL | CLz/F ([2]; 25 mg/kg): 4.1 mL/min/kg | T1/2z (half-life) ([2]; 25 mg/kg): 5.138 h | CLz/F ([2]; 50 mg/kg): 1.28 mL/min/kg | T1/2z (half-life) ([2]; 50 mg/kg): 5.528 h | half-life ([2]; 25 mg/kg, 25 mg/kg): 5.14 h | half-life ([2]; 50 mg/kg, 50 mg/kg): 5.53 h | amount (%) that permeates into the basolateral side from the apical side (Caco-2 cell monolayer): much higher than that of soyasapogenol A
